# Laboratory results reported in patent publication US12209084B2, “Serotonin 5-HT2B inhibitory compounds” (Zoetis Services LLC, priority 2021, dated 2025).
# Molecular target: T1, canine 5-HT2B receptor (Canis lupus familiaris, UniProt Q50DZ8)
# T1 construct: expressed in transfected cells; host or cells: CHO-K1
# Experiment: Canine 5-HT2B (c5-HT2B) in-vitro assay (FLIPR calcium response, antagonist mode)
# Type: cell-based
# Conditions: CHO-K1 cells stably expressing the canine 5-HT2B receptor; intracellular calcium response (FLIPR Calcium 5); inhibition of EC80 concentration of serotonin after 10 minute antagonist incubation; read-out: Compound Receptor IC50 Affinities for c5-HT2B
# Description: Canine 5-HT2B (c5-HT2B) In-Vitro Assay
# CHO-K1 cells stably expressing the canine 5-HT2B receptor were seeded at 20,000 cells per well in 20 μl culture media (DMEM with GlutaMAX™ high glucose+5% dialyzed FBS+10 mM HEPES+1×MEM Non-Essential Amino Acids of a 384-well black plate with clear bottom for at least 18 hours at 37° C. and 5% CO2. The cell plate was loaded with 20 μl/well of the FLIPR© Calcium 5 Assay kit prepared in HBSS containing calcium and magnesium supplemented with 20 mM HEPES and 5 mM Probenecid at pH 7.4 and incubated at 37° C. and 5% CO2 for 30 minutes and then an additional 30 minutes at room temperature. The intracellular calcium response was measured using the FLIPR® Tetra instrument measuring the kinetic response of the calcium 5 dye at an excitation wavelength of 470-495 nm and emission wavelength of 515-575 nm at room temperature. The cells were initially challenged with a 5× concentration of the antagonist (10 μl/well) after an initial baseline recording and the calcium response was recorded for almost 2 minutes. After the completion of the initial antagonist challenge, the cell plate was incubated at room temperature in the FLIPR Tetra® instrument for 10 minutes. Finally, a second kinetic assay was performed after the 10 minute incubation at room temperature to measure the inhibitory response of the EC80 concentration of serotonin (15 μl/well) after an initial baseline recording. The IC50 concentration was determined for each antagonist tested.
# In accordance with the in-vitro assay described above, the IC50 affinities for the c5-HT2B receptors for the compounds of the invention are provided in Table 1.
# T1 sequence (Q50DZ8 1-434): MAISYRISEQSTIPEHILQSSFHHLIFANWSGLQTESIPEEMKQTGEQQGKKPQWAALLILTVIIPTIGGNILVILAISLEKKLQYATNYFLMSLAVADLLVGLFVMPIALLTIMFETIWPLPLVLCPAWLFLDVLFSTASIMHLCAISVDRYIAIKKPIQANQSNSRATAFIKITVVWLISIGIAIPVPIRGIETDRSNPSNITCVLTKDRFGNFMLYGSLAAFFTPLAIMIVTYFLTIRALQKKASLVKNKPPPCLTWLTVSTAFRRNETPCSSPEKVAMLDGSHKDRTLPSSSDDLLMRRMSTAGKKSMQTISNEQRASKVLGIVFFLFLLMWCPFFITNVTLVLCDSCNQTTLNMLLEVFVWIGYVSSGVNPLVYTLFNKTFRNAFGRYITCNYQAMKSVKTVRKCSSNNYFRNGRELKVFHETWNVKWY
row,IC50,SMILES
1,0.00041 µM,"O=C(N[C@@H]1C[C@H]2CC[C@@H](C1)N2Cc1ccccc1)c1ccc2cc[nH]c2c1 [Example 1, N-((1R,3s,5S)-8-benzyl-8-azabicyclo[3.2.1]octan-3-yl)-1H-indole-6-carboxamide]"
2,0.00015 µM,"O=C(N[C@@H]1C[C@H]2CC[C@@H](C1)N2Cc1ccccc1)c1ccc2cc[nH]c2n1 [Example 2, N-((1R,3s,5S)-8-benzyl-8-azabicyclo[3.2.1]octan-3-yl)-1H-pyrrolo[2,3-b]pyridine-6-carboxamide]"
3,0.00153 µM,"O=C(N[C@@H]1C[C@H]2CC[C@@H](C1)N2Cc1ccc(Cl)cc1)c1ccc2cc[nH]c2n1 [Example 3, N-((1R,3s,5S)-8-(4-chlorobenzyl)-8-azabicyclo[3.2.1]octan-3-yl)-1H-pyrrolo[2,3-b]pyridine-6-carboxamide]"
4,0.00012 µM,"O=C(N[C@@H]1C[C@H]2CC[C@@H](C1)N2Cc1ccc(F)cc1)c1ccc2cc[nH]c2c1 [Example 4, N-((1R,3s,5S)-8-(4-fluorobenzyl)-8-azabicyclo[3.2.1]octan-3-yl)-1H-indole-6-carboxamide]"
5,0.00027 µM,"O=C(N[C@@H]1C[C@H]2CC[C@@H](C1)N2Cc1ccc(Cl)cc1)c1ccc2cc[nH]c2c1 [Example 5, N-((1R,3s,5S)-8-(4-chlorobenzyl)-8-azabicyclo[3.2.1]octan-3-yl)-1H-indole-6-carboxamide]"
6,0.00031 µM,"O=C(N[C@@H]1C[C@H]2CC[C@@H](C1)N2Cc1ccc2[nH]ccc2c1)c1ccc2cc[nH]c2c1 [Example 6, N-((1R,3s,5S)-8-((1H-indol-5-yl)methyl)-8-azabicyclo[3.2.1]octan-3-yl)-1H-indole-6-carboxamide]"
7,0.0013 µM,"O=C(N[C@@H]1C[C@H]2CC[C@@H](C1)N2Cc1cccs1)c1ccc2cc[nH]c2c1 [Example 7, N-((1R,3s,5S)-8-(thiophen-2-ylmethyl)-8-azabicyclo[3.2.1]octan-3-yl)-1H-indole-6-carboxamide]"
8,0.004 µM,"Cc1cc2ccc(C(=O)N[C@@H]3C[C@H]4CC[C@@H](C3)N4Cc3ccccc3)cc2[nH]1 [Example 8, N-((1R,3s,5S)-8-benzyl-8-azabicyclo[3.2.1]octan-3-yl)-2-methyl-1H-indole-6-carboxamide]"
9,0.112 µM,"O=C(N[C@@H]1C[C@H]2CC[C@@H](C1)N2Cc1ccccc1)c1ccc2c3c([nH]c2c1)CCCC3 [Example 9, N-((1R,3s,5S)-8-benzyl-8-azabicyclo[3.2.1]octan-3-yl)-2,3,4,9-tetrahydro-1H-carbazole-7-carboxamide]"
10,0.432 µM,"O=C(N[C@@H]1C[C@H]2CC[C@@H](C1)N2Cc1ccccc1)c1ccc2cn[nH]c2c1 [Example 10, N-((1R,3s,5S)-8-benzyl-8-azabicyclo[3.2.1]octan-3-yl)-1H-indazole-6-carboxamide]"
11,0.0923 µM,"O=C(N[C@@H]1C[C@H]2CC[C@@H](C1)N2Cc1ccc(C(F)(F)F)cc1)c1ccc2cc[nH]c2c1 [Example 11, N-((1R,3s,5S)-8-(4-(trifluoromethyl)benzyl)-8-azabicyclo[3.2.1]octan-3-yl)-1H-indole-6-carboxamide]"
12,0.0543 µM,"O=C(N[C@@H]1C[C@H]2CC[C@@H](C1)N2Cc1ccccn1)c1ccc2cc[nH]c2c1 [Example 12, N-((1R,3s,5S)-8-(pyridin-2-ylmethyl)-8-azabicyclo[3.2.1]octan-3-yl)-1H-indole-6-carboxamide]"
13,0.663 µM,"O=C(N[C@@H]1C[C@H]2CC[C@@H](C1)N2Cc1cccnc1)c1ccc2cc[nH]c2c1 [Example 13, N-((1R,3s,5S)-8-(pyridin-3-ylmethyl)-8-azabicyclo[3.2.1]octan-3-yl)-1H-indole-6-carboxamide]"
14,2.8 µM,"O=C(N[C@@H]1C[C@H]2CC[C@@H](C1)N2Cc1ccncc1)c1ccc2cc[nH]c2c1 [Example 14, N-((1R,3s,5S)-8-(pyridin-4-ylmethyl)-8-azabicyclo[3.2.1]octan-3-yl)-1H-indole-6-carboxamide]"
15,3.7 µM,"O=C(N[C@@H]1C[C@H]2CC[C@@H](C1)N2Cc1cnccn1)c1ccc2cc[nH]c2c1 [Example 15, N-((1R,3s,5S)-8-(pyrazin-2-ylmethyl)-8-azabicyclo[3.2.1]octan-3-yl)-1H-indole-6-carboxamide]"
16,8.7 µM,"Cn1ccnc1CN1[C@@H]2CC[C@H]1C[C@H](NC(=O)c1ccc3cc[nH]c3c1)C2 [Example 16, N-((1R,3s,5S)-8-((1-methyl-1H-imidazol-2-yl)methyl)-8-azabicyclo[3.2.1]octan-3-yl)-1H-indole-6-carboxamide]"
17,8.28 µM,"O=C(N[C@@H]1C[C@H]2CC[C@@H](C1)N2c1ccccc1)c1ccc2cc[nH]c2c1 [Example 17, N-((1R,3s,5S)-8-phenyl-8-azabicyclo[3.2.1]octan-3-yl)-1H-indole-6-carboxamide]"
18,0.538 µM,"O=C(N[C@@H]1C[C@H]2CC[C@@H](C1)N2Cc1ccccc1)c1ccc2ccn(-c3ccncc3)c2c1 [Example 18, N-((1R,3s,5S)-8-benzyl-8-azabicyclo[3.2.1]octan-3-yl)-1-(pyridin-4-yl)-1H-indole-6-carboxamide]"
19,0.144 µM,"N#Cc1c[nH]c2cc(C(=O)N[C@@H]3C[C@H]4CC[C@@H](C3)N4Cc3ccccc3)ccc12 [Example 19, N-((1R,3s,5S)-8-benzyl-8-azabicyclo[3.2.1]octan-3-yl)-3-cyano-1H-indole-6-carboxamide]"
20,0.021 µM,"O=C(N[C@@H]1C[C@H]2CC[C@@H](C1)N2Cc1ccccc1)c1ccc2cc(C(F)(F)F)[nH]c2c1 [Example 20, N-((1R,3s,5S)-8-benzyl-8-azabicyclo[3.2.1]octan-3-yl)-2-(trifluoromethyl)-1H-indole-6-carboxamide]"
21,1.1 µM,"O=C(N[C@@H]1C[C@H]2CC[C@@H](C1)N2Cc1ccccc1)c1ccc2ccn(-c3ccc(C(F)(F)F)cc3)c2c1 [Example 21, N-((1R,3s,5S)-8-benzyl-8-azabicyclo[3.2.1]octan-3-yl)-1-(4-(trifluoromethyl)phenyl)-1H-indole-6-carboxamide]"
22,0.032 µM,"O=C(N[C@@H]1C[C@H]2CC[C@@H](C1)N2Cc1ccccc1)c1ccc2ccn(-c3ccc(F)cc3)c2c1 [Example 22, N-((1R,3s,5S)-8-benzyl-8-azabicyclo[3.2.1]octan-3-yl)-1-(4-fluorophenyl)-1H-indole-6-carboxamide]"
23,0.057 µM,"O=C(N[C@@H]1C[C@H]2CC[C@@H](C1)N2Cc1ccccc1)c1ccc2ccn(-c3ccccc3)c2c1 [Example 23, N-((1R,3s,5S)-8-benzyl-8-azabicyclo[3.2.1]octan-3-yl)-1-phenyl-1H-indole-6-carboxamide]"
24,0.108 µM,"O=C(N[C@@H]1C[C@H]2CC[C@@H](C1)N2Cc1nccs1)c1ccc2cc[nH]c2c1 [Example 27, N-((1R,3s,5S)-8-(thiazol-2-ylmethyl)-8-azabicyclo[3.2.1]octan-3-yl)-1H-indole-6-carboxamide]"

row,SMILES,IC50
1,"O=C(N[C@@H]1C[C@H]2CC[C@@H](C1)N2Cc1ccccc1)c1ccc2ccoc2c1 [Example 24, N-((1R,3s,5S)-8-benzyl-8-azabicyclo[3.2.1]octan-3-yl)benzofuran-6-carboxamide]",0.0005 µM
2,"O=C(N[C@@H]1C[C@H]2CC[C@@H](C1)N2Cc1ccns1)c1ccc2cc[nH]c2c1 [Example 25, N-((1R,3s,5S)-8-(isothiazol-5-ylmethyl)-8-azabicyclo[3.2.1]octan-3-yl)-1H-indole-6-carboxamide]",0.0014 µM
3,"O=C(N[C@@H]1C[C@H]2CC[C@@H](C1)N2Cc1ccsn1)c1ccc2cc[nH]c2c1 [Example 26, N-((1R,3s,5S)-8-(isothiazol-3-ylmethyl)-8-azabicyclo[3.2.1]octan-3-yl)-1H-indole-6-carboxamide]",0.0177 µM
4,"Cc1csc(CN2[C@@H]3CC[C@H]2C[C@H](NC(=O)c2ccc4cc[nH]c4c2)C3)n1 [Example 28, N-((1R,3s,5S)-8-((4-methylthiazol-2-yl)methyl)-8-azabicyclo[3.2.1]octan-3-yl)-1H-indole-6-carboxamide]",0.2 µM
